Results as given in BindingDB's records for doi:10.1021/jm960069a (University of Camerino, 1996).

Molecular target: Alpha-1B adrenergic receptor (Mesocricetus auratus) (UniProt P18841)
Assay: Binding affinity towards Alpha-1B adrenergic receptor hamster smooth muscle using [3H]prazosin as radioligand

Sequence of Alpha-1B adrenergic receptor (Mesocricetus auratus) (P18841 whole entry, looked up): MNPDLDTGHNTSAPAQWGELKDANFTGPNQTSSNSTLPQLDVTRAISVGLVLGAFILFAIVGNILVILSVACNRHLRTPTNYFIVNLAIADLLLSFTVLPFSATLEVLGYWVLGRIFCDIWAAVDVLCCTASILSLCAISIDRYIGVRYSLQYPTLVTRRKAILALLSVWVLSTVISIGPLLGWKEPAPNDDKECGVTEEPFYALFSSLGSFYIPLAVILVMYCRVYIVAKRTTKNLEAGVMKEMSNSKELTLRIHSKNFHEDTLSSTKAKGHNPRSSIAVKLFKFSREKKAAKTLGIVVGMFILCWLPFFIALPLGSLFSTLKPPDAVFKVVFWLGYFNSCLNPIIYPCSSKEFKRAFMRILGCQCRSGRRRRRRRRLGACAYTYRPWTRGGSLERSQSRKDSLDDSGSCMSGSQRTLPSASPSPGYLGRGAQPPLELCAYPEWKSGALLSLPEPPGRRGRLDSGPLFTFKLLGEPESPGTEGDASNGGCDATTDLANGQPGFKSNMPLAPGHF

| Ki [nM] | Compound |
| --- | --- |
| 51.4 | COc1cccc(OC)c1OCCNCC1Oc2ccccc2OC1c1ccc(C)cc1 (configuration not stated) [[2-(2,6-Dimethoxy-phenoxy)-ethyl]-(3-p-tolyl-2,3-dihydro-benzo[1,4]dioxin-2-ylmethyl)-amine] |
| 21.1 | COc1cccc(OC)c1OCCNC[C@@H]1Oc2ccccc2O[C@H]1c1ccc(C)cc1 [[2-(2,6-Dimethoxy-phenoxy)-ethyl]-((2S,3S)-3-p-tolyl-2,3-dihydro-benzo[1,4]dioxin-2-ylmethyl)-amine] |
